From PMC12881674, “Activation of TRPV3 channels in bladder cancer cells stimulates ATP release” (Molecular Pharmacology, 2025)

Target: T1, TRPV3 in KU-19-19 cells (Homo sapiens, UniProt Q8NET8)
T1 construct: host or cells: KU-19-19
T1 sequence (Q8NET8 1-790): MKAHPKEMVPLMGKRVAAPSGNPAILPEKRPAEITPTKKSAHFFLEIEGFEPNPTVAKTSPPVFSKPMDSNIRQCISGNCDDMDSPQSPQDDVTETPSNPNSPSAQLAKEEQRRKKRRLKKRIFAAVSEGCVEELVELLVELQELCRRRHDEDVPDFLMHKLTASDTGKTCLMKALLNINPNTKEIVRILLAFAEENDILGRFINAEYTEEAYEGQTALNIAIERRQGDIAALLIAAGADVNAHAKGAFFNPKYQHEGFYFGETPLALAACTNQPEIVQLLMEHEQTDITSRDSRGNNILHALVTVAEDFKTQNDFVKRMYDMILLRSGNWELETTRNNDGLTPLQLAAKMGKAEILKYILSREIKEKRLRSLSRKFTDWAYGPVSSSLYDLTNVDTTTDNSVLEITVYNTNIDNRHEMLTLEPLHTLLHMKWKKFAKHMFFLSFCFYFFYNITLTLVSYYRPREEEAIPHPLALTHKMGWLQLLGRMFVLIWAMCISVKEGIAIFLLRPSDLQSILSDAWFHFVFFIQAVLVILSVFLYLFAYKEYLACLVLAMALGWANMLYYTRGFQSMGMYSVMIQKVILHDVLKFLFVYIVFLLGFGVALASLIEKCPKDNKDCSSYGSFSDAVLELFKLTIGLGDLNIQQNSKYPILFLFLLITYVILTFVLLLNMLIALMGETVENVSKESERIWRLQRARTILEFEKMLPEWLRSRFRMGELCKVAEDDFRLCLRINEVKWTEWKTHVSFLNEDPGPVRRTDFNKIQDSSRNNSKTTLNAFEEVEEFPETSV
Test: whole-cell patch-clamp recordings in KU-19-19 cells
Type: cell-based
Description: Supplementation of the cellular cholesterol content in KU-19-19 cells was performed by adding cholesterol-loaded methyl-β-cyclodextrin (MβCD) to the cells. Cholesterol was dissolved in ethanol (20 mg/mL) by heating at 65 °C for 15 minutes. The cholesterol solution was then added dropwise to a 250 mM MβCD solution prepared in phosphate-buffered solution (PBS; Sigma Aldrich) at a 1:4 (v/v) ratio, yielding a stock containing 200 mM MβCD-cholesterol. KU-19-19 cells were incubated for 15 minutes at 37 °C in HBS containing 2.5 mM MβCD-cholesterol. As a control, KU-19-19 cells were incubated in HBS without MβCD-cholesterol supplement under the same conditions. […]
Fig. 3 TRPV3 is functionally expressed in bladder cancer cells. (A–D) Activation of TRPV3 in KU-19-19 (A, B) and CAL-29 (C, D) bladder cancer cells by AV3-1, assessed by fura-2-based Ca^2+ assays. […] (B, D) Quantification of peak [Ca^2+]ᵢ responses from KU-19-19 (B) and CAL-29 (D) cells under the indicated treatment conditions. Statistical significance was determined using one-way ANOVA with Tukey post hoc analysis; ∗P < .05. […] Current amplitudes were recorded using voltage ramps from −100 mV to +100 mV (500-millisecond duration) such as in F and expressed as current density (pA/pF) measured at +100 mV and −100 mV. […] Statistical significance was determined using Kruskal-Wallis ANOVA followed by Conover test; ∗P < .05. […]

- currents under cholesterol-loaded conditions compared with untreated cells (50 μM AV3-1, KU-19-19 cells preincubated with 2.5 mM MβCD-cholesterol): substantially larger currents
Compound: COC(=O)C12CN(Cc3ccccc3)CC1(C(=O)OC)CN(Cc1ccccc1)C2 (centres unmarked) [AV3-1]
- TRPV3 currents in KU-19-19 cells (50 μM AV3-1, repeated applications): robustly and reproducibly activated TRPV3 currents
